# Test results as given in patent US20100317850A1 (priority 2008, published 2010).
# Tested on: Aβ42 production
# Experiment: Quantification of Aβ peptide in culture of neurons from rat fetus brain (Aβ ELISA)
# Type: cell-based
# Conditions: Neuron, 72 h; rat primary neuronal culture (cerebral cortex, embryonic day 18 Wistar rats); medium collected three days after addition of the compound; Aβx-42 ELISA; read-out: Aβ42 production reducing effect IC50
# Method: Quantification of Aβ Peptide in Culture of Neurons from Rat Fetus Brain
# (1) Rat Primary Neuronal Culture
# Primary neuronal cultures were prepared from the cerebral cortex of embryonic day 18 Wistar rats (Charles River Japan, Yokohama, Japan). Specifically, the embryos were aseptically removed from pregnant rats under ether anesthesia. The brain was isolated from the embryo and immersed in an ice-cold L-15 medium (such as Invitrogen Corp. Cat #11415-064, Carlsbad, Calif., USA, or SIGMA L1518). The cerebral cortex was collected from the isolated brain under a stereoscopic microscope. The cerebral cortex fragments collected were enzymatically treated in an enzyme solution containing 0.25% trypsin (Invitrogen Corp. Cat #15050-065, Carlsbad, Calif., USA) and 0.01% DNase (Sigma D5025, St. Louis, Mo., USA) at 37° C. for 30 minutes to disperse the cells. Here, the enzymatic reaction was stopped by adding inactivated horse serum to the solution. The enzymatically treated solution was centrifuged at 1,500 rpm for five minutes to remove the supernatant. 5 to 10 mL of a medium was added to the resulting cell mass. Neurobasal medium (Invitrogen Corp. Cat #21103-049, Carlsbad, Calif., USA) supplemented with 2% B27 supplement (Invitrogen Corp. Cat #17504-044, Carlsbad, Calif., USA), 25 μM 2-mercaptoethanol (2-ME, WAKO Cat #139-06861, Osaka, Japan), 0.5 mM L-glutamine (Invitrogen Corp. Cat #25030-081, Carlsbad, Calif., USA), and Antibiotics-Antimycotics (Invitrogen Corp. Cat #15240-062, Carlsbad, Calif., USA) was used as the medium (Neurobasal/B27/2-ME). However, the above Neurobasal medium not supplemented with 2-ME (Neurobasal/B27) was used for the assay. The cells were redispersed by mild pipetting of the cell mass to which the medium was added. The cell dispersion was filtered through a 40-μm nylon mesh (Cell Strainer, Cat #35-2340, Becton Dickinson Labware, Franklin Lakes, N.J., USA) to remove the remaining cell mass, and thus a neuronal cell suspension was obtained. The neuronal cell suspension was diluted with the medium and then plated in a volume of 100 μL/well at an initial cell density of 5×10^5 cells/cm^2 in a 96-well polystyrene culture plate pre-coated with poly-L or D-lysine (Falcon Cat #35-3075, Becton Dickinson Labware, Franklin Lakes, N.J., USA coated with poly-L-lysine using the method shown below, or BIOCOAT™ cell environments Poly-D-lysine cell ware 96-well plate, Cat #35-6461, Becton Dickinson Labware, Franklin Lakes, N.J., USA). Poly-L-lysine coating was carried out as follows. 100 μg/mL of a poly-L-lysine (SIGMA P2636, St. Louis, Mo., USA) solution was aseptically prepared with a 0.15 M borate buffer (pH 8.5). […] of the solution was added to the 96-well polystyrene culture plate and incubated at room temperature for one or more hours or at 4° C. overnight or longer. Thereafter, the coated 96-well polystyrene culture plate was washed with sterile water four or more times, and then dried or rinsed with, for example, sterile PBS or medium, and used for cell plating. The plated cells were cultured in the culture plate at 37° C. in 5% CO2-95% air for one day. Then, the total amount of the medium was replaced with a fresh Neurobasal™/B27/2-ME medium, and then the cells were cultured for further three days.
# The drug was added to the culture plate on Day 4 of culture as follows. The total amount of the medium was removed from the wells, and 180 μL/well of Neurobasal medium not containing 2-ME and containing 2% B-27 (Neurobasal/B27) was added thereto. A solution of the test compound in dimethyl sulfoxide (hereinafter abbreviated as DMSO) was diluted with Neurobasal/B27 to a concentration 10-fold higher than the final concentration. 20 μL/well of the dilution was added to and sufficiently mixed with the medium. The final DMSO concentration was 1% or less. Only DMSO was added to the control group.
# The cells were cultured for three days after addition of the compound, and the total amount of the medium was collected. […]
row,SMILES,IC50
1,"COC[C@H]1C[C@]2(c3cc(NC(=O)c4cnc(OCF)cn4)ccc3F)N=C(N)SC[C@@H]2CO1 [Example 38, N-[3-((4aS,7R,8aS)-2-amino-7-methoxymethyl-4a,5,7,8-tetrahydro-4H-6-oxa-3-thia-1-azanaphthalen-8a-yl)-4-fluorophenyl]-5-fluoromethoxypyrazine-2-carboxamide]",6 nM
2,"CC[C@H]1OC[C@]2(c3cc(NC(=O)c4cnc(OC(F)F)cn4)ccc3F)N=C(N)SC[C@H]12 (relative stereo) [Example 50, N-[3-((4aS*,5R*,7aS*)-2-amino-5-ethyl-4a,5-dihydro-4H-furo[3,4-d][1,3]thiazin-7a-yl)-4-fluorophenyl]-5-difluoromethoxypyrazine-2-carboxamide]",0.9 nM
3,"NC1=N[C@@]2(c3cc(NC(=O)c4cnc(OC(F)F)cn4)ccc3F)CCOC[C@H]2CS1 (relative stereo) [Example 29, N-[3-((4aS*,8aS*)-2-amino-4a,5,7,8-tetrahydro-4H-6-oxa-3-thia-1-azanaphthalen-8a-yl)-4-fluorophenyl]-5-difluoromethoxypyrazine-2-carboxamide]",4 nM
4,"NC1=N[C@@]2(c3cc(NC(=O)c4ncc(Cl)cc4Cl)ccc3F)CCCC[C@H]2CS1 (single isomer, unassigned) [Example 257, N-[3-((4aR*,8aS*)-2-amino-4,4a,5,6,7,8-hexahydrobenzo[d][1,3]thiazin-8a-yl)-4-fluorophenyl]-3,5-dichloropyridine-2-carboxamide]",17 nM
5,"NC1=N[C@@]2(c3cc(NC(=O)c4ncc(F)cc4F)ccc3F)CCCC[C@H]2CS1 (single isomer, unassigned) [Example 105, N-[3-((4aR*,8aS*)-2-amino-4,4a,5,6,7,8-hexahydrobenzo[d][1,3]thiazin-8a-yl)-4-fluorophenyl]-3,5-difluoropyridine-2-carboxamide]",121 nM
6,"CC[C@H]1OC[C@]2(c3cc(NC(=O)c4cnc(OCF)cn4)ccc3F)N=C(N)SC[C@H]12 (relative stereo) [Example 52, N-[3-((4aS*, 5R*,7aS*)-2-amino-5-ethyl-4a,5-dihydro-4H-furo[3,4-d][1,3]thiazin-7a-yl)-4-fluorophenyl]-5-fluoromethoxypyrazine-2-carboxamide]",2 nM
7,"COCC#Cc1ccc(C(=O)Nc2ccc(F)c([C@]34CCC[C@H]3CSC(N)=N4)c2)nc1 (single isomer, unassigned) [Example 136, N-[3-((4aR*,7aS*)-2-amino-4a,5,6,7-tetrahydro-4H-cyclopenta[d][1,3]thiazin-7a-yl)-4-fluorophenyl]-5-(3-methoxypropyn-1-yl)-pyridine-2-carboxamide]",25 nM
8,"NC1=N[C@@]2(c3cc(NC(=O)c4ncccc4F)ccc3F)CCC[C@H]2CS1 (single isomer, unassigned) [Example 171, N-[3-((4aR*,7aS*)-2-amino-4a,5,6,7-tetrahydro-4H-cyclopenta[d][1,3]thiazin-7a-yl)-4-fluorophenyl]-3-fluoropyridine-2-carboxamide]",89 nM
9,"CCCCO[C@@H]1C[C@H]2CSC(N)=N[C@@]2(c2cc(NC(=O)c3ccc(C#N)cn3)ccc2F)C1 (relative stereo) [Example 108, (+)-N-[3-((4aR*,6R*,7aS*)-2-amino-6-butoxy-4a,5,6,7-tetrahydro-4H-cyclopenta[d][1,3]thiazin-7a-yl)-4-fluorophenyl]-5-cyanopyridine-2-carboxamide]",1 nM
10,"NC1=N[C@@]2(c3cc(-c4cccnc4F)ccc3F)CCC[C@H]2CS1 (racemic) [Example 160, (±)-(4aR*,7aS*)-7a-[2-fluoro-5-(2-fluoropyridin-3-yl)phenyl]-4,4a,5,6,7,7a-hexahydrocyclopenta[d][1,3]thiazin-2-ylamine]",521 nM
11,"NC1=N[C@@]2(c3cc(NC(=O)c4ccc(C#CC5CC5)cn4)ccc3F)CCC[C@H]2CS1 (single isomer, unassigned) [Example 132, N-[3-((4aR*,7aS*)-2-amino-4a,5,6,7-tetrahydro-4H-cyclopenta[d][1,3]thiazin-7a-yl)-4-fluorophenyl]-5-cyclopropylethynyl-pyridine-2-carboxamide]",44 nM
12,Cc1cnc(C(=O)Nc2ccc(F)c([C@]34CCC[C@H]3CSC(N)=N4)c2)cn1 [Example 195],68 nM
13,"COC[C@H]1C[C@]2(c3cc(NC(=O)c4cnc(C(F)F)cn4)ccc3F)N=C(N)SC[C@@H]2CO1 [Example 40, N-[3-((4aS,7R,8aS)-2-amino-7-methoxymethyl-4a,5,7,8-tetrahydro-4H-6-oxa-3-thia-1-azanaphthalen-8a-yl)-4-fluorophenyl]-5-difluoromethylpyrazine-2-carboxamide]",26 nM
14,"NC1=N[C@@]2(c3cc(NC(=O)c4ccc(Br)cn4)ccc3F)COC[C@H]2CS1 (relative stereo) [Example 166, N-[3-((4aS*,7aS*)-2-amino-4a,5-dihydro-4H-furo[3,4-d][1,3]thiazin-7a-yl)-4-fluorophenyl]-5-bromopyridine-2-carboxamide]",4 nM
15,"CO[C@H]1CC[C@]2(c3cc(NC(=O)c4ccc(C#N)cn4)ccc3F)N=C(N)SC[C@H]12 (relative stereo) [Example 63, N-[3-((4aS*,5S*,7aS*)-2-amino-5-methoxy-4a,5,6,7-tetrahydro-4H-cyclopenta[d][1,3]thiazin-7a-yl)-4-fluorophenyl]-5-cyanopyridine-2-carboxamide]",11 nM
16,NC1=N[C@@]2(c3cc(NC(=O)c4ccccn4)ccc3F)CCCC[C@H]2CS1 [Example 255],158 nM
17,"NC1=N[C@@]2(c3cc(NC(=O)c4ccc(Cl)cn4)ccc3F)CCCC[C@H]2CS1 (single isomer, unassigned) [Example 3, (+)-N-[3-((4aR.*,8aS*)-2-amino-4,4a,5,6,7,8-hexahydrobenzo[d][1,3]thiazin-8a-yl)-4-fluorophenyl]-5-chloropyridine-2-carboxamide]",9 nM
18,NC1=N[C@@]2(c3cc(NC(=O)c4ccc(OCc5ccccc5)cn4)ccc3F)CCC[C@H]2CS1 [Example 196],977 nM
19,NC1=N[C@@]2(c3cc(NC(=O)c4ccc(Br)cn4)ccc3F)CCCC[C@H]2CS1 [Example 254],43 nM
20,"N#Cc1ccc(C(=O)Nc2cc(F)cc([C@]34CCC[C@H]3CSC(N)=N4)c2)nc1 (racemic) [Example 158, (±)-N-[3-((4aR*,7aS*)-2-amino-4a,5,6,7-tetrahydro-4H-cyclopenta[d][1,3]thiazin-7a-yl)-5-fluorophenyl]-5-cyanopyridine-2-carboxamide]",53 nM
21,"NC1=N[C@@]2(c3cc(NC(=O)c4ccc(C(F)F)cn4)ccc3F)CCC[C@H]2CS1 (single isomer, unassigned) [Example 141, N-[3-((4aR*,7aS*)-2-amino-4a,5,6,7-tetrahydro-4H-cyclopenta[d][1,3]thiazin-7a-yl)-4-fluorophenyl]-5-difluoromethylpyridine-2-carboxamide]",16 nM
22,"NC1=N[C@@]2(c3cc(NC(=O)c4ccc(F)cn4)ccc3F)CCC[C@H]2CS1 (relative stereo) [Example 9, N-[3-((4aR*,7aS*)-2-amino-4a,5,6,7-tetrahydro-4H-cyclopenta[d][1,3]thiazin-7a-yl)-4-fluorophenyl]-5-fluoropyridine-2-carboxamide]",28 nM
